Active and inactive are the calls of the source. No rule for the calls is given here.

Drawing on ChEMBL document CHEMBL3987221, “The Australian National University Dept Of Immunology Pathogen Box Compounds Screened” (2018), this text covers inhibition for 55 molecules.

In test [1] the target is T1, Ferrochelatase, mitochondrial (Homo sapiens) (UniProt P22830).
T1 sequence (whole entry): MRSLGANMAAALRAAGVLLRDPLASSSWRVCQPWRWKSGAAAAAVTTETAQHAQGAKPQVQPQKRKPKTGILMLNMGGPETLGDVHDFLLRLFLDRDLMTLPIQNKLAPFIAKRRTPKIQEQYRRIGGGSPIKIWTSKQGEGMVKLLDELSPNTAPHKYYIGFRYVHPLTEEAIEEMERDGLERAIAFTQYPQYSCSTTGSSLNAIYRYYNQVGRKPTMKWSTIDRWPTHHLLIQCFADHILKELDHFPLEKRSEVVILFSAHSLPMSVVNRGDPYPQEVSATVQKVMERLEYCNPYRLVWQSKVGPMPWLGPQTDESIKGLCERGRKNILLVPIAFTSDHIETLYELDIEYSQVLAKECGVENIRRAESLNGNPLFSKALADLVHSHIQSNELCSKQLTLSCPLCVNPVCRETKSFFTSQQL
The following applies: at 10 µM.
Description: Compound was evaluated for the inhibition of human FECH at 10uM

Test [2] has as its target T2, Porphobilinogen deaminase (Homo sapiens) (UniProt P08397).
T2 sequence (whole entry): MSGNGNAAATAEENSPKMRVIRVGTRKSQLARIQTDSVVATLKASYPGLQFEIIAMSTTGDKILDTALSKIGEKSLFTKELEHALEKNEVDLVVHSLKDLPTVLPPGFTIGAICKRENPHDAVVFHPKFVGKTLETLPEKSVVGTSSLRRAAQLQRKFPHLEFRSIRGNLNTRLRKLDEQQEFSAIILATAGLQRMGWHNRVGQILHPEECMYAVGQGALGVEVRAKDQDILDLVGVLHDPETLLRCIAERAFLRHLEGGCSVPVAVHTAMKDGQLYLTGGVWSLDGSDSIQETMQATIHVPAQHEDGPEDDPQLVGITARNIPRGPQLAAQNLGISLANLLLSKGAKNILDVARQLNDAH
The following applies: at 100 µM.
Description: Compound was evaluated for the inhibition of human HMBS at 100uM

As for `c1ccc(-c2[nH]c3ccccc3c2C(c2ccccn2)N2CCCC2)cc1` (stereo not given), the inhibition result in test [1] and in test [2] was “inactive” in each case.
In the case of `COc1ccc(OC(C)C(=O)Nc2ccc(Cl)cc2C)cc1` (stereo not given), the inhibition entry in test [1] and in test [2] was “inactive” throughout.
Consider `Cc1cc(C)n2nc(C(=O)Nc3cc(C(F)(F)F)ccc3N3CCOCC3)nc2n1`, for which the inhibition entry in test [1] and in test [2] was “inactive” in each case.
In the case of `CC(C)(C)OC(=O)N1CCC(Cn2nc(-c3cnc4ccccc4c3)c3c(N)ncnc32)CC1`, the inhibition entry in test [1] and in test [2] was “inactive” each time.
For the molecule `CC(=O)N1CCN(c2ccc(Oc3ccc(Cl)cc3O)cc2)CC1`, the inhibition entry in test [1] and in test [2] was “inactive” each time.
Regarding `O=C(Nc1ccc(C(F)(F)F)c(C(F)(F)F)c1)c1cc(Cl)ccc1O`, the inhibition entry in test [1] and in test [2] was “inactive” each time.
`COc1nc2ccc(Br)cc2cc1[C@@H](c1ccccc1)[C@@](O)(CCN(C)C)c1cccc2ccccc12`: the inhibition result in test [1] and in test [2] was “inactive” in each case.
`CC(C)(C)n1nc(Cc2cccc3ccccc23)c2c(N)ncnc21`: the inhibition entry in test [1] and in test [2] was “inactive” in each case.
For `CCOC(=O)c1cc(-c2csc(Nc3c(C)cc(C)cc3C)n2)on1`, the inhibition entry in test [1] and in test [2] was “inactive” throughout.
For `CCc1nc2ccc(C(=O)NCc3ccc4c(c3)OCO4)cn2c1N(C)Cc1cccs1`, the inhibition result in test [1] and in test [2] was “inactive” each time.
As to `CCOC(=O)c1c(NC(=O)c2c(F)c(F)c(F)c(F)c2F)sc(C(N)=O)c1C`, the inhibition entry in test [1] and in test [2] was “inactive” throughout.
On to `CNc1cc(C)nc(C2CN(C(=O)c3n[nH]c4ccccc34)CCO2)c1` (stereo not given), for which the inhibition entry in test [1] and in test [2] was “inactive” throughout.
For `O=C1[C@@H](Oc2ccccc2)[C@@H](c2ccc(Cl)cc2)N1CCn1cnc2c(NCc3ccccc3)ncnc21`, the inhibition entry in test [1] and in test [2] was “inactive” throughout.
For the molecule `CC[C@@H]([C@H](C)O)n1ncn(-c2ccc(N3CCN(c4ccc(OC[C@@H]5CO[C@@](Cn6cncn6)(c6ccc(F)cc6F)C5)cc4)CC3)cc2)c1=O`, the inhibition result in test [1] and in test [2] was “inactive” in each case.
For `CCOc1ccccc1NC(C)C(=O)Nc1cc(C(F)(F)F)ccc1N1CCOCC1` (stereo not given), the inhibition result in test [1] and in test [2] was “inactive” in each case.
As for `O=C(Nc1nc(-c2ccccn2)cs1)c1cncn1-c1ccccc1`, the inhibition result in test [1] and in test [2] was “inactive” each time.
For the molecule `CNC(=O)C1Cc2ccccc2N1C(=O)Cc1ccc(F)cc1` (stereo not given), the inhibition entry in test [1] and in test [2] was “inactive” each time.
For `CC(C)(C)c1cc(C(=O)N2CCN(c3nccnc3C#N)CC2)n(Cc2ccccc2)n1`, the inhibition entry in test [1] and in test [2] was “inactive” throughout.
For `O=C(C1CCCCC1)N1CC(=O)N2CCc3ccccc3C2C1` (stereo not given), the inhibition result in test [1] and in test [2] was “inactive” in each case.
Consider `c1ccc(Oc2ccc(-c3cncc(-c4ccc5[nH]ccc5c4)n3)cc2)cc1`, for which the inhibition result in test [1] and in test [2] was “inactive” in each case.
For `Cc1ccc2[nH]c3c(NCCN(C)C)ncnc3c2c1`, the inhibition result in test [1] and in test [2] was “inactive” throughout.
As for `Cc1nc2ccccn2c1C(=O)NCc1ccc(Cl)cc1`, the inhibition result in test [1] and in test [2] was “inactive” in each case.
Turning to `CN1CCC(NCc2cccc(-c3ccc(S(=O)(=O)NCc4ccccc4)cc3)c2)CC1`, the inhibition result in test [1] and in test [2] was “inactive” each time.
As for `Cc1[nH]c2cc(F)cc(F)c2c(=O)c1-c1ccc(Oc2ccc(OC(F)(F)F)cc2)cc1`, the inhibition result in test [1] and in test [2] was “inactive” in each case.
As to `Cc1cc(NC(=O)c2ccc(Oc3ccc(Cl)cc3O)o2)no1`, the inhibition result in test [1] and in test [2] was “inactive” each time.
Turning to `Nc1ncnc2c1ncn2[C@@H]1O[C@H](COS(=O)(=O)NC(=O)c2ccccc2O)[C@@H](O)[C@H]1O`, the inhibition result in test [1] and in test [2] was “inactive” in each case.
Regarding `CN1CCN(c2nccc3nc(-c4ccc(F)c(F)c4)[nH]c23)CC1`, the inhibition result in test [1] and in test [2] was “inactive” throughout.
Turning to `COc1cc(C(F)(F)F)nc2ccc(C)c(N)c12`, the inhibition result in test [1] and in test [2] was “inactive” each time.
In the case of `CC(C)(C)CN1C(=O)C(c2ccccc2)(c2ccccc2)N=C1N`, the inhibition entry in test [1] and in test [2] was “inactive” in each case.
On to `CC[C@H](CO)NCCN[C@H](CC)CO`, for which the inhibition result in test [1] and in test [2] was “inactive” throughout.
Turning to `c1ccc(Oc2ccc(-c3cc(C4CCOCC4)[nH]n3)cc2)cc1`, the inhibition result in test [1] and in test [2] was “inactive” each time.
For `Nc1nc2cc(-c3cncc(Oc4ccc(F)cc4)c3)ccc2[nH]1`, the inhibition entry in test [1] and in test [2] was “inactive” each time.
Consider `Cc1cc(OCC(=O)NCc2ccccc2)c2cc(Br)ccc2n1`, for which the inhibition result in test [1] and in test [2] was “inactive” each time.
Turning to `FC(F)(F)c1ccc(N(c2cccnc2)C2CCN(c3ccc(C(F)(F)F)cn3)CC2)cc1`, the inhibition result in test [1] and in test [2] was “inactive” in each case.
Consider `O=C(Nc1cnc2ccccc2c1)c1cccc(-n2cnnn2)c1`, for which the inhibition entry in test [1] and in test [2] was “inactive” in each case.
As for `CC1CCCN(C(=O)C(C)Nc2cc(Cl)ccc2N2CCOCC2)C1` (stereo not given), the inhibition result in test [1] and in test [2] was “inactive” each time.
Take `COc1ccc(C2=NN(C3CCCCCC3)C(=O)C2(C)C)cc1OCCCCOc1ccc(-c2nn[nH]n2)cc1`: the inhibition entry in test [1] and in test [2] was “inactive” throughout.
As for `CC(C)(C)c1cnc(NC(=O)c2ccccc2O)s1`, the inhibition result in test [1] and in test [2] was “inactive” throughout.
On to `COc1cncc(-c2cncc(N3CCN(c4ccncc4)CC3)n2)c1`, for which the inhibition entry in test [1] and in test [2] was “inactive” in each case.
Regarding `CCc1nc2ccc(Cl)cn2c1C(=O)NCc1ccc(N2CCC(c3ccc(OC(F)(F)F)cc3)CC2)cc1`, the inhibition result in test [1] and in test [2] was “inactive” each time.
With `CC(C(=O)Nc1ccc2oc(-c3ccncc3)nc2c1)c1ccccc1` (stereo not given), the inhibition entry in test [1] and in test [2] was “inactive” throughout.
For the molecule `CS(=O)(=O)Cc1nc2ccccc2oc1=O`, the inhibition result in test [1] and in test [2] was “inactive” each time.
With `CNc1nnc(Sc2cnn(-c3ccccc3)c(=O)c2Cl)s1`, the inhibition result in test [1] and in test [2] was “inactive” throughout.
Take `O=C(COc1cccc(F)c1)Nc1nc(-c2ccccn2)cs1`: the inhibition entry in test [1] and in test [2] was “inactive” each time.
Consider `O=C1COCc2ccc(Br)cc2N1Cc1ccc(C(F)(F)F)cc1`, for which the inhibition entry in test [1] and in test [2] was “inactive” each time.
Turning to `COC(=O)c1ccc(F)cc1NS(=O)(=O)c1cccc(-c2cnn(Cc3ccccc3)c2)c1`, the inhibition result in test [1] and in test [2] was “inactive” throughout.
For `CCc1ccc(C(NCc2nc(N)nc(N(C)C)n2)C(C)C)cc1` (stereo not given), the inhibition result in test [1] and in test [2] was “inactive” throughout.
For `Oc1c(I)cc(I)c2cccnc12`, the inhibition entry in test [1] and in test [2] was “inactive” throughout.
With `COc1cccc(CC(=O)N2CCC(n3c(C)nc4ccc(F)cc43)CC2)c1`, the inhibition result in test [1] and in test [2] was “inactive” each time.
In the case of `Cc1ccc2c(c1C)NC(=O)C21NN=C(c2ccccc2)S1` (stereo not given), the inhibition result in test [1] and in test [2] was “inactive” throughout.
Take `O=C(NC1=NCCS1)c1sc2cc(F)ccc2c1Cl`: the inhibition entry in test [1] and in test [2] was “inactive” throughout.
As for `C[C@]1(COc2ccc(N3CCC(Oc4ccc(OC(F)(F)F)cc4)CC3)cc2)Cn2cc([N+](=O)[O-])nc2O1`, the inhibition entry in test [1] and in test [2] was “inactive” throughout.
Take `O=C(NCc1cc(Cl)cc(Cl)c1)c1c(C(F)(F)F)nc2ccccn12`: the inhibition entry in test [1] and in test [2] was “inactive” in each case.
Turning to `Cc1ccc2[nH]c(C3CCCNC3)c(-c3ccncc3)c2c1` (stereo not given), the inhibition result in test [1] and in test [2] was “inactive” in each case.
On to `CO[C@@H](C(=O)N1Cc2[nH]nc(NC(=O)c3ccc(N4CCN(C)CC4)cc3)c2C1)c1ccccc1`, for which the inhibition result in test [1] and in test [2] was “inactive” each time.
